From patent US9701651B2, “Methods of treating an overweight or obese subject” (Zafgen, Inc., priority 2008, dated 2017)
Entries after “also recorded” stand apart in the source; their conditions may differ.

System: DIO mice
Experiment: Weight loss study in diet-induced obese mice (oral administration)
Type: in vivo, C57BL/6NTac mice
Conditions: 1.0 mg/kg orally in 10% gelucire in deionised water, once a day for 7 days; mice on 60% fat diet; over the course of the 8 days; compared with vehicle group
Description: A weight loss study was conducted in obese mice. The mice in this study were not genetically obese, but prior to and during the study, obesity was induced by a high-fat diet. Twelve week-old C57BL/6NTac mice, maintained on a 60% fat diet prior to and during the study, were separated into seven groups, eight animals per group. Average body weight of the mice was approximately 47 g at the start of the study.
Each of […] groups was orally administered 1.0 mg/kg of a compound (fumagillin and compounds B. C, D, E, F and G), in 10% gelucire in deionised water. Compounds B-G are as follows:
Each of these six groups was administered a different compound. One group was orally administered fumagillin at 1.0 mg/kg (ZGN-201) in 10% gelucire in deionised water, and one group was administered ([…] in deionised water(vehicle). Mice received administrations once a day for 7 days.
(Data analyzed by ANCOVA with body weight on Day 1 as covariate followed by multiple tests against vehicle group: *p<0.05; **p<0.01, ***p<0.001.)

Structure (SMILES) | effect on body weight (weight loss)
CO[C@@H]1[C@H](OC(=O)N[C@@H](C(N)=O)C(C)C)CC[C@]2(CO2)[C@H]1[C@@]1(C)O[C@@H]1CC=C(C)C [B] | lost weight
CO[C@@H]1[C@H](OC(=O)NCCC2CCCN2C)CC[C@]2(CO2)[C@H]1[C@@]1(C)O[C@@H]1CC=C(C)C (some centres unmarked) [C] | lost weight; also recorded: losing the most weight of these four groups
CO[C@@H]1[C@H](OC(=O)N[C@@H](C(=O)NCCC2CCCN2C)C(C)C)CC[C@]2(CO2)[C@H]1[C@@]1(C)O[C@@H]1CC=C(C)C (some centres unmarked) [D] | lost weight
CO[C@@H]1[C@H](OC(=O)N[C@@H](C(=O)NCCN2CCCC2)C(C)C)CC[C@]2(CO2)[C@H]1[C@@]1(C)O[C@@H]1CC=C(C)C [E] | lost weight
CO[C@@H]1[C@H](OC(=O)/C=C/C=C/C=C/C=C/C(=O)O)CC[C@]2(CO2)[C@H]1[C@@]1(C)O[C@@H]1CC=C(C)C [fumagillin, reference compound] | lost the most weight
